Reference: patent publication US12453784B2 (priority 2018, dated 2025)

Assays:
[1] = test infusion, 500 μL to each motor cortex
[2] = system: release of neurotransmitters including acetylcholine, norepinephrine, and glutamate; details: in vivo; cited from earlier work

Row | Molecule | motor cortical coverage [1] | period of reversible inhibition of neurotransmitter release [2]
1 | [Gd] [gadolinium] | satisfactory motor cortical coverage | –
2 | Botulinum toxin type A | – | 2-6 months
